The values below come from patent publication US5798447A, “Antibodies specific for D-myo-inositol 1, 4, 5-trisphosphate and the enzyme-linked immunosorbent assay of D-myo-inositol 1, 4, 5-trisphosphate” (The Board of Governors for Higher Education State of Rhode …, priority 1996, dated 1998).

Assay [1] relates to affinity-purified Ins(1,4,5)P3-specific antibodies. In words: Inhibition of binding of affinity-purified antibodies to immobilized Ins(1,4,5)P3 by ions. Also on record: species or system New Zealand White rabbit. To be noted: for inhibition of / interference with antibody binding to immobilized Ins(1,4,5)P3: concentration not stated with the result, or 'high concentrations'; for IC50: affinity-purified antibodies, preincubation 30 minutes, room temperature, read-out: IC50 for inhibition of antibody binding to immobilized Ins(1,4,5)P3; for inhibition of antibody recognition by cations: concentrations up to 100 mM; for interference with antibody binding to immobilized Ins(1,4,5)P3: up to 0.3 mM. The method, then:
(§1) The presence of anti-Ins(1,4,5)P3 antibodies in rabbit serum was detected by an ELISA. Ins(1,4,5)P3 (hapten) was covalently attached to microtiter plates through a C-6 linker by adding 6-O-(ω-Aminohexyl)-D-myo-inositol 1,4,5-triphosphate (1) (1.25 μg in 0.1 ml of phosphate buffered saline (PBS) per well) to maleic anhydride-activated polystyrene plates (Pierce). This anhydride-activated plate allows direct coupling of amine-bearing molecules to the well surface, (Pierce Chemical Co. Instruction 15110X (1992) REACTI-BIND™ Maleic Anhydride Activated Polystyrene Plates), and obviates the need for a carrier protein to immobilize haptens. The plate was incubated at room temperature overnight, and each well was blocked by adding 0.12 ml of SUPERBLOCK ™ blocking solution in PBS (Pierce). After 10 minutes at room temperature, the plate was washed twice with 0.05% Tween-20 in 10 mM Tris/HCl containing 0.85% NaCl, pH 7.2 (TBS), followed by TBS buffer twice. Rabbit antiserum (antibodies) diluted in TBS buffer containing 0.1% gelatin was added (95 μl per well). The plate was incubated at 37° C. for 2 hours, and washed as stated above. Specific antibody binding was assessed by adding goat anti-rabbit IgG-HRP conjugate (1/200 dilution in TBS containing 0.1% gelatin; 90 μl per well), and the plate was incubated for another 2 hours at 37° C. After the plate was washed again, the peroxidase substrate solution (90 μl per well) containing 2 mM 2,2'-azinobis(3-ethyl-benzthiazoline-6-sulfonic acid), 2.5 mM hydrogen peroxide, and 50 mM citrate buffer, with a final pH of 5.0, was added. The reaction was incubated at room temperature for 15-20 minutes, and terminated by adding 20 μl of 5% SDS to each well. The absorbance at 415 nm was measured by a microtiter plate reader. Rabbit serum taken before immunization was used as a control in all the assays, from which the absorbance values obtained served as a blank for the correction of experimental data.
Referring to FIG. 3, the affinity-purified antibodies were preincubated with individual multivalent ions at indicated concentrations for 30 minutes at room temperature before added to the (1,4,5)IP3 immobilized EIA plates. […] The assay for the binding inhibition was the same as that described for the ELISA in the Experimental Procedures. Percentage maximal antibody binding is expressed by B/Bo, where B=absorbance with inhibitor and Bo =absorbance without inhibitor. Each data point represents the means of three determinations.

Assay [2] relates to IP3 -C6 -NC5 -BSA induced antibodies (anti-Ins(1,4,5)P3 antiserum). In words: Competitive ELISA: immobilized Ins(1,4,5)P3 vs competitor, IP3-C6NC5-BSA induced antiserum. It counts as binding, New Zealand White rabbit. As to conditions: for lower affinity relative to Ins(1,4,5)P3: both antiserum preparations; for IC50: IP3-C6-NC5-BSA induced antibodies, competitive ELISA, read-out: [Competitor] (M) at half maximal absorbance (B/Bo = 0.5) or IC50. The procedure:
(§2) New Zealand White female rabbits were immunized with 1 mg of the IP3 -BSA conjugate in 0.5 ml of saline emulsified with an equal volume of Freund's complete adjuvant by five to six subcutaneous injections at the back and both flanks. Booster injections were given with the same amounts of the IP3 -BSA prepared with incomplete Freund's adjuvant at monthly intervals. After the second boost, the animals were bled from the ear vein 2 weeks after each booster injection. The antisera thus prepared were stored at -20° C. until used.
as §1
(§3) The avidity and specificity of these antisera were examined by competitive ELISA experiments between immobilized Ins(1,4,5)P3 and various inositol phosphates.
(§4) Table 1 Avidity of antisera toward various inositol phosphates and
(§5) PIP2. The avidity is expressed as the concentrations at halfmaximal
(§6) absorbance (B/Bo = 0.5) in the competitive ELISA experiments.
A general note: In an ELISA, binding on a coated surface is turned into a signal by an enzyme label.

Assay [3] concerns IP3 -C5 -BSA induced antibodies (anti-Ins(1,4,5)P3 antiserum). In words: Competitive ELISA: immobilized Ins(1,4,5)P3 vs competitor, IP3-C5-BSA induced antiserum. It counts as binding, New Zealand White rabbit. To be noted: IP3-C5-BSA induced antibodies; for IC50: competitive ELISA, read-out: [Competitor] (M) at half maximal absorbance (B/Bo = 0.5) or IC50. The procedure: as §2, §1, §3, §4, §5, §6

Assay [4] has as its system affinity-purified Ins(1,4,5)P3-specific antibodies (from IP3 -C5 -BSA induced antiserum). Description: Competitive ELISA with affinity-purified Ins(1,4,5)P3-specific antibodies and inositol phosphates. It counts as binding, New Zealand White rabbit. The method, then:
as §1
The antiserum (5.2 ml) was applied to an ECONO-PAC ™ protein A cartridge (5 ml, Bio-Rad) equilibrated with 100 mM Tris/HCl, pH 8.0. The column was washed with, in sequence, 20 ml of the equilibrating buffer, and 25 ml of 10 mM Tris/HCl, pH 8.0. The bound IgG was eluted with 25 ml of 100 mM glycine buffer, pH 3.0, at a flow rate of 0.5 ml/min. Fractions of 1.7 ml were collected in tubes containing 100 μl of 1M Tris/HCl, pH 8.0.
The dialyzed solution from step 1 was applied to a Ins(1,4,5)IP3 -agarose column (5.8 ml bed volume) equilibrated with 10 mM Tris/HCl, pH 7.5. The column was washed with the equilibration buffer followed by 500 mM NaCl in the same buffer. The absorbed proteins were eluted with, in sequence, 50 ml of 100 mM glycine buffer, pH 3.5, 10 ml of 10 mM Tris/HCl, pH 8.8, and 50 ml of 100 mM NaHCO3 /Na2 CO3 buffer, pH 10.5 Fractions of 1.7 ml were collected. For the eluate with the glycine buffer and with the NaHCO3 /Na2 /CO3 buffer, fractions were collected in tubes containing 100 μl of 1M Tris/HCl, pH 8.0, and 700 μl of 1M Tris/HCl, pH 7.6, respectively.
Referring to FIG. 2, the displacement curves were generated from competitive ELISA experiments between immobilized (1,4,5)IP3 and various inositol phosphates shown in the insert. The antibodies were preincubated with individual competitors at various concentrations for 30 minutes at room temperature before added to the (1,4,5)IP3 immobilized EIA plates. The assay for the competitive binding was the same as that described for the ELISA under "Experimental Procedures". Percentage total specific binding is expressed by B/Bo, where B=absorbance with competitor and Bo =absorbance without competitor. Each data point represents the means of three determinations. For clarity, the standard deviations were not shown.

A further assay deals with Ins(1,4,5)P3 receptors. To be noted: Wilcox et al. 1993; read-out: IC50 for displacing [3H]Ins(1,4,5)P3 binding from Ins(1,4,5)P3 receptors; cited from earlier work.

Entries after “also recorded” stand apart in the source; their conditions may differ.

With `[N-]=[N+]=[N-]` [N3 -], the “inhibition of / interference with antibody binding to immobilized Ins(1,4,5)P3” value (“inhibition of / interference” for short) in assay [1] is listed as “no appreciable interference”.

For the compound `O=P(O)(O)O[C@H]1[C@H](OP(=O)(O)O)[C@H](O)[C@H](O)[C@@H](O)[C@@H]1OP(=O)(O)O` [Ins(1,5,6)P3], the “order of affinity toward various inositol phosphates” value in assay [2] (IP3-C6NC5-BSA induced antiserum) is recorded as “Ins(3,4,5,6)P4 >Ins(1,5,6)P3, PIP2, Ins(1,2,5,6)P4 >Ins(4,5)P2”. Also, in assay [2], the “lower affinity relative to Ins(1,4,5)P3” value is on record as “two to four orders of magnitude”.

Take PIP2: the IC50 in assay [3] is 3.2e-05 M. Further, in assay [2], the IC50 stood at 1.6e-05 M and the “lower affinity relative to Ins(1,4,5)P3” value is given as “two to four orders of magnitude”. In assay [4], the IC50 came out at 14 µM and the “IC50 relative to that of Ins(1,4,5)P3” value is reported as “three orders or magnitude higher”.

With `N.N.O=S(=O)(O)O` [(NH4)2 SO4], in assay [1] (even after extensive dialysis), the “binding capability of antibodies after (NH4)2SO4 precipitation” value is reported as “complete loss of binding capability”.

`O=P(O)(O)OC1[C@H](O)[C@H](O)C(O)[C@H](O)[C@H]1O` (some centres unmarked) [Ins(1)P1]: in assay [2], the IC50 was found to be 0.00042 M and the “lower affinity relative to Ins(1,4,5)P3” value is given as “two to four orders of magnitude”.

`O=S(=O)(O)O` [SO4^2 -]: in assay [1], the IC50 was 11.6 mM and the “inhibition of / interference” value is listed as “could be disrupted”.

Take `O=P(O)(O)O[C@@H]1[C@H](O)[C@H](O)[C@@H](OP(=O)(O)O)[C@H](OP(=O)(O)O)[C@H]1O` [Ins(1,4,5)P3, D-myo-inositol 1,4,5-trisphosphate]: the “binding compared with IP3-C6NC5-BSA induced antiserum” value in assay [3] is recorded as “stronger binding”. For the same compound, the IC50 in assay [3] is 3.1e-08 M; in assay [2] it was 8.9e-08 M; at Ins(1,4,5)P3 receptors it was 20.7 nM; in assay [4], 0.012 µM.

With `O=P(O)(O)O[C@@H]1[C@@H](O)[C@H](O)[C@H](O)[C@H](O)[C@H]1OP(=O)(O)O` [Ins(4,5)P2], the IC50 in assay [3] worked out at 2.5e-05 M; in assay [2] it was 3.8e-05 M; in assay [4], 14 µM. In addition, the “lower affinity relative to Ins(1,4,5)P3” value in assay [2] was “two to four orders of magnitude”. In assay [4], the “IC50 relative to that of Ins(1,4,5)P3” value is recorded as “three orders or magnitude higher”.

Take `O=P(O)(O)O[C@H]1[C@H](OP(=O)(O)O)[C@@H](OP(=O)(O)O)[C@@H](O)[C@@H](O)[C@@H]1OP(=O)(O)O` [Ins(3,4,5,6)P4]: the IC50 in assay [3] came out at 6.3e-06 M. In addition, in assay [2], the IC50 was determined as 4.5e-06 M and the “lower affinity relative to Ins(1,4,5)P3” value is listed as “two to four orders of magnitude”.

For `O=P(O)(O)O[C@H]1[C@H](O)[C@@H](O)[C@H](OP(=O)(O)O)[C@@H](OP(=O)(O)O)[C@H]1O` [Ins(1,3,4)P3], in assay [3], the “decrease in affinity compared with IP3-C6NC5-BSA induced antiserum” value is 10 fold and the IC50 is 1e-05 M. For the same compound, in assay [2], the IC50 amounted to 1.7e-06 M and the “lower affinity relative to Ins(1,4,5)P3” value is listed as “two to four orders of magnitude”. Besides, in assay [4], the IC50 turned out to be 39 µM and the “IC50 relative to that of Ins(1,4,5)P3” value is listed as “three orders or magnitude higher”.

On to `[Na+]` [Na+], for which, in assay [1], the “inhibition of / interference” value is “no inhibiting effect; also recorded: did not affect the binding” and the “inhibition of antibody recognition by cations” value (“inhibition … by cations” for short) is reported as “did not cause significant inhibition”.

Consider `NC(CO)(CO)CO` [Tris], for which, in assay [1], the “inhibition … by cations” value is reported as “did not cause significant inhibition”.

On to `O=P(O)(O)O` [HPO4^2 -], for which, in assay [1], the IC50 amounted to 2.61 mM and the “inhibition of / interference” value is reported as “could be disrupted”.

In the case of `Nc1ncnc2c1ncn2[C@@H]1O[C@H](COP(=O)(O)OP(=O)(O)OP(=O)(O)O)[C@@H](O)[C@H]1O` [ATP^4 -], in assay [1], the IC50 is 0.21 mM and the “inhibition of / interference” value is listed as “could be disrupted”.

With `Cl` [C1-], the “inhibition of / interference” value in assay [1] is on record as “no appreciable interference”.

`O=P(O)(O)OC1C(O)C(OP(=O)(O)O)C(OP(=O)(O)O)C(OP(=O)(O)O)C1OP(=O)(O)O` (centres unmarked) [Ins(1,3,4,5,6)P5]: in assay [4], the IC50 turned out to be 45 µM and the “IC50 relative to that of Ins(1,4,5)P3” value is “three orders or magnitude higher”.

For `N` [NH4 +], in assay [1], the “inhibition … by cations” value is reported as “did not cause significant inhibition”.

As to `O=P(O)(O)O[C@H]1[C@H](OP(=O)(O)O)[C@@H](OP(=O)(O)O)[C@H](OP(=O)(O)O)[C@@H](OP(=O)(O)O)[C@H]1OP(=O)(O)O` [IP6, Phytic acid], the IC50 in assay [3] turned out to be 0.0008 M. Moreover, in assay [2], the IC50 came out at 0.00015 M and the “lower affinity relative to Ins(1,4,5)P3” value is “two to four orders of magnitude”.

Regarding `[K+]` [K+], in assay [1], the “inhibition of / interference” value is listed as “did not affect the binding” and the “inhibition … by cations” value was “did not cause significant inhibition”.

With heparin, the results for the “interference with antibody binding to immobilized Ins(1,4,5)P3” value in assay [1] and in assay [1] (listed as haparin) were “not affected” and “no appreciable interference”, respectively.

`O=P(O)(O)O[C@H]1[C@H](OP(=O)(O)O)[C@@H](OP(=O)(O)O)[C@H](O)[C@@H](O)[C@H]1OP(=O)(O)O` [Ins(1,2,5,6)P4]: in assay [3], the IC50 was 7.1e-05 M. For the same compound, in assay [2], the IC50 came out at 2.1e-05 M and the “lower affinity relative to Ins(1,4,5)P3” value is “two to four orders of magnitude”.
